We go through 1 substance from patent US20060009403A1, “Dna demethylase antisense and chemotherapy combination” (Centre National De La Recherche Scientifique (CNRS), priority 2002, published 2006).

This assay concerns H1299 tumor grafts (human non-small cell lung tumors). Description: Growth of H1299 tumor grafts in nude mice after intratumor electrotransfer of antisense plasmid and/or intramuscular bleomycin (Experiments 1 and 2). In kind it is in vivo. The following applies: for Number of tumors cured (tumors no longer measurable): cured/total. Here is the method:
Two series of experiments were carried out in nude mice weighing 18 to 20 g. The mice were implanted on one side with H1299 tumor grafts (human non-small cell lung tumors) of approximately 20 mm^3. The tumors developed, to reach a volume of 20 to 150 mm^3. The mice were sorted as a function of the size of the tumors and were divided up into homogeneous batches reaching tumor volumes of 50 to 80 mm^3 (n=10 to 13). The mice were anesthetized with a mixture of ketamine and xylazine.
A series of tumors was subjected to no treatment.
Five electrotransfers of 50 μg of plasmid in 80 μl of 150 mM NaCl were carried out in the tumors on the days indicated by the arrows. The plasmid solution was injected longitudinally at the periphery of the tumor using a Hamilton syringe. The lateral faces of the tumors were coated with conducting gel and the tumors were placed between 2 flat stainless steel electrodes 0.4 to 0.7 cm apart. Twenty to 30 seconds after the injection, the plasmids were electrotransferred using a commercial (square) electrical pulse generator (Jouan Electropulser PS 15). Each tumor was subjected to 500 V/cm delivered in 8 pulses lasting 20 msec at a frequency of 1 Hertz.
Twenty-five μg of bleomycin/animal in 50 μl of 150 mM NaCl were injected bilaterally into the tibialis cranialis muscle and, 30 minutes later, each tumor was subjected to 1 electrotransfer as explained above.
Twenty-five μg of bleomycin/animal in 50 μl of 150 mM NaCl were injected bilaterally into the tibialis cranialis muscle and, 30 minutes later, 50 μg of antisense plasmid in 80 μl of 150 mM NaCl were injected and electrotransferred. Four other electrotransfers of 50 μg of antisense plasmid in 80 μl of 150 mM NaCl were subsequently carried out in the tumors on the days indicated by the arrows.
The tumor volumes were measured individually for each tumor using an electronic slide gauge with a digital display, according to the formula (length×width×thickness)/2.
The median of the tumor volumes was reported in the form of a graph, as a function of time.
Five electrotransfers of 80 μl of 150 mM NaCl were carried out in the tumors on the days indicated by the arrows.
Fifty μl of 150 mM NaCl were injected bilaterally into the tibialis cranialis muscle and, 30 minutes later, an electrotransfer of 50 μg of antisense plasmid in 80 μl of 150 mM NaCl was carried out. Four other electrotransfers of 50 μg of antisense plasmid in 80 μl of 150 mM NaCl were subsequently carried out in the tumors on the days indicated by the arrows.
Twenty-five μg of bleomycin/animal in 50 μl of 150 mM NaCl were injected bilaterally into the tibialis cranialis muscle and, 30 minutes later, each tumor was injected with 80 μl of 150 mM NaCl and subjected to an electrotransfer. Four other electrotransfers of 80 μl of 150 mM NaCl were subsequently carried out in the tumors on the days indicated by the arrows.
Twenty-five μg of bleomycin/animal in 50-μl of 150 mM NaCl were injected bilaterally in the tibialis cranialis muscle and, 30 minutes later, an electrotransfer of 50 μg of antisense plasmid in 80 μl of 150 mM NaCl was carried out. Four other electrotransfers of 50 μg of antisense plasmid in 80 μl of 150 mM NaCl were subsequently carried out in the tumors on the days indicated by the arrows.

Regarding bleomycin, the “Delay in growth, treatment versus untreated” value (Experiment 1) is 30 days. The “D1000, number of days required to reach a tumor volume of 1000 mm^3” value runs as follows: (Experiment 1 (Table 3)) “D44 days”; (Experiment 2 (Table 3)) “D38 days”. Besides, the “Day 1000 mm^3 (median), number of days to reach 1000 mm^3 of tumor volume” value (Experiment 1, H1299 tumors, 25 μg bleomycin i.m. and/or 5 electrotransfers of 50 μg plasmid) is recorded as 44.40 days. For the same substance, the “Number of tumors cured (tumors no longer measurable)” value is 1/13 (Experiment 1) and 1/11 (Experiment 2). The “Delay in growth, treatment versus electro/NaCl” value (Experiment 2) was 17 days. For the same substance, the “D 1000 mm^3 (median), number of days to reach 1000 mm^3 of tumor volume” value (Experiment 2, H1299 tumors, 25 μg bleomycin i.m. and/or 5 electrotransfers of 50 μg plasmid) is 38.00 days. Besides, the “Tumor (complete) cure rate” value (H1299 tumors, summary over Experiments 1 and 2) is reported as 10%.
